In article doi:10.1101/2025.11.04.686469, “Discovery of Host-Directed Small Molecules with Broad Anti-Leishmanial Efficacy” (bioRxiv, 2025):

What was measured:
[1] = system: intracellular L. donovani amastigotes; assay: Luminescent-based evaluation of intracellular anti-leishmanial activity in THP-1 macrophages; assay type: cell-based, Leishmania donovani; details: intracellular Leishmania donovani in THP1 macrophages, luminescence assay (Supplemental Table 2); read-out: Lum IC50
Description: Luminescent strains, L. donovani LV82 expressing firefly luciferase (a kind gift from Dr. Abhay Satoskar, Ohio State University) and L. mexicana (NR-51210, ATCC) expressing renilla luciferase were used to evaluate the effect of the compounds in intracellular and extracellular conditions. Wild-type L. donovani LV82 (ATCC) were used for Giemsa staining based experiments. All parasites were cultured at 25°C and 5% CO2 in M199 media (Corning) supplemented with 10% FBS, 1% penicillin/streptomycin, and hemin (0.01 mg/mL), and used in experiments up to passage 15.
THP-1 cells were seeded in a 96 well plate (25,000 cells/well) overnight then differentiated with 150 nM phorbol 12-myristate 13-acetate (PMA) over 72 hours (Supplemental Figure 1). […] Briefly, promastigotes of a known cell density were resuspended in RPMI media (with 10% FBS, 1% P/S and 0.05 mM β-mercaptoethanol) and incubated with adhered THP-1 cells over 18 hours. After infection, cells were washed three times with fresh media to remove extracellular promastigotes.
Infected macrophages were then treated with compounds solubilized in DMSO ranging from 0.1-10 μM in concentrations. After 72 hours of treatment, the viability of the amastigotes within macrophages was determined using Promega firefly luminescence assay (Cat E1500) or Pierce Renilla luciferase assay (Cat 16166) for L. donovani and L. mexicana strains, respectively. Briefly, media was removed, and cells were lysed with the assay lysis buffer. The luciferase substrate was then incubated with the lysed cells for 10 min at room temperature and luminescence of live Leishmania was measured in a white opaque 96 well plate using a Biotek plate reader.

THP-1 macrophages = assay: Effect of compounds on host cell viability (MTT); assay type: cell-based; details: read-out: 24h LC50; THP1 macrophages, 24-hour incubation, MTT assay (Supplemental Table 2)
Description: The cells were cultured at 37C, 5% CO2 in RPMI medium (ATCC) supplemented with 10% FBS, 1% Penicillin/Streptomycin and 0.05 mM of β-mercaptoethanol. Cells were used in experiments up to passage 10.
Effect of the compounds on THP-1 cell viability measured using thiazolyl blue tetrazolium bromide which measures cell metabolic activity (MTT). THP-1 cells were seeded in a 96 well plate (25,000 cells/well) overnight then differentiated with 150 nM phorbol 12-myristate 13-acetate (PMA) over 72 hours. Macrophages were then treated with compounds resuspended in RPMI media (1- 50 μM) for 24 hours. Media was replaced with thiazolyl blue tetrazolium bromide solubilized in RPMI media (0.5 mg/mL) and incubated at 37°C for 2 hours. The reduced formazan crystals were solubilized with isopropyl alcohol and the absorbance of the resulting solution was measured at 560 nm with a background subtraction at 670 nm. […] This process was repeated with a 72-hr incubation and extended concentration range (1 - 300 μM) for select compounds.

SMILES	IC50 [1] [µM]	CC50 (THP-1 macrophages) [µM]
FC(F)(F)c1ccc(-c2ccc(-c3cc(C(F)(F)F)nn3-c3ccc(NC4CCN(Cc5ccc(Cl)c(Cl)c5)CC4)cc3)cc2)cc1 [Compound 90]	> 10	> 50
CCCNC1CN(c2ccc(-n3nc(C(F)(F)F)cc3-c3ccc(-c4ccc(C(F)(F)F)cc4)cc3)cc2)C1 [Compound 54]	2.4	9.9
CC(C)C#Cc1ccc(-c2cc(C(F)(F)F)nn2-c2ccc(N3CCNCC3)cc2)cc1 [Compound 45]	3.7	3.2
CN(C)c1ccc(-c2cc(C(F)(F)F)nn2-c2ccc(N3CCC(N)C3)cc2)cc1 (stereo not shown) [Compound 231]	1.8	10.8
COc1ccc(-c2cc(C(F)(F)F)nn2-c2ccc(NC3CCNC3)cc2)cc1OC (stereo not shown) [Compound 260]	4.3	13.9
CS(=O)(=O)c1ccc(-n2nc(C(F)(F)F)cc2-c2ccc(-c3ccc(C(F)(F)F)cc3)cc2)cc1 [Compound 179]	> 10	45
NCCCOc1ccc(CN2CCC(Oc3ccc(-n4nc(C(F)(F)F)cc4C4CCCCC4)cc3)CC2)cc1 [Compound 429]	2.4	12.1
NCC(=O)Nc1ccc(-n2nc(C(F)(F)F)c3c2CCCC3)cc1 [Compound 331]	9.9	47
CC(C)(C)OC(=O)NC1CCN(c2ccc(-n3nc(C(F)(F)F)cc3-c3ccc(-c4ccc(C(F)(F)F)cc4)cc3)cc2)C1 (stereo not shown) [Compound 128]	> 10	> 50
FC(F)(F)c1cn(-c2ccc(NCC3CC3)cc2)c(-c2ccc(-c3ccccc3)cc2)n1 [Compound 116]	9.9	> 50
CCCCCC(=O)NC1CCN(c2ccc(-n3nc(C(F)(F)F)cc3-c3ccc(-c4ccc(C(F)(F)F)cc4)cc3)cc2)C1 (stereo not shown) [Compound 63]	> 10	> 50
Fc1cccc(CN2CCC(Nc3ccc(-n4nc(C(F)(F)F)cc4C4CCCCC4)cc3)C2)c1 (stereo not shown) [Compound 357]	1.2	13.1
CNS(=O)(=O)Cc1ccc(-n2nc(C(F)(F)F)cc2-c2ccc(-c3ccc(C(F)(F)F)cc3)cc2)cc1 [Compound 191]	> 10	12
FC(F)(F)c1ccc(-c2ccc(-c3cc(C(F)(F)F)nn3-c3ccc(NCCCCl)cc3)cc2)cc1 [Compound 67]	> 10	> 50
COC(=O)c1ccc(-n2cc(C(F)(F)F)nc2-c2ccc(-c3ccc(C(F)(F)F)cc3)cc2)c(F)c1 [Compound 175]	> 10	> 50
Fc1cccc(CNC2CCN(c3ccc(-n4nc(C(F)(F)F)cc4-c4ccc(-c5ccc(S(F)(F)(F)(F)F)cc5)cc4)cc3)C2)c1 (stereo not shown) [Compound 108]	> 10	> 50
FC(F)(F)c1cn(-c2ccc(N3CCC(NCc4ccccc4)C3)cc2)c(-c2ccc(-c3ccccc3)cc2)n1 (stereo not shown) [Compound 84]	6.5	> 50
NCCCCN1CCC(Oc2ccc(-n3nc(C(F)(F)F)cc3C3CCCCC3)cc2)CC1 [Compound 424]	2.4	6.5
FC(F)(F)c1cc(C2CCCCC2)n(-c2ccc(NC3CCNC3)cc2)n1 (stereo not shown) [Compound 312]	4.8	25.5

SMILES	IC50 [1] [µM]	CC50 (THP-1 macrophages) [µM]
N#Cc1ccc(-n2cc(C(F)(F)F)cc2-c2ccc(-c3ccc(C(F)(F)F)cc3)cc2)cc1 [Compound 205]	> 10	> 50
CN(C)c1ccc(-c2cc(C(F)(F)F)nn2-c2ccc(Br)cc2)cc1 [Compound 214]	> 10	> 50
NCC(=O)Nc1ccc(-n2cc(C(F)(F)F)nc2-c2ccc(C(F)(F)F)cc2)cc1 [Compound 409]	8.8	35.2
Oc1ccc(CNC2CCN(c3ccc(-n4nc(C(F)(F)F)cc4C4CCCCC4)cc3)C2)cc1 (stereo not shown) [Compound 362]	2.2	20
Nc1ccc(-n2nc(C(F)(F)F)cc2-c2ccc(-c3ccc(S(F)(F)(F)(F)F)cc3)cc2)cc1 [Compound 104]	> 10	> 50
N#Cc1ccc(CN2CCC(Oc3ccc(-n4nc(C(F)(F)F)cc4C4CCCCC4)cc3)CC2)cc1 [Compound 373]	7	> 50
COc1ccc(-c2cc(C(F)(F)F)nn2-c2ccc(Br)cc2)cc1OC [Compound 251]	> 10	> 50
CC(=O)NCCCCCN1CCC(Oc2ccc(-n3nc(C(F)(F)F)cc3C3CCCCC3)cc2)CC1 [Compound 431]	4.8	22.4
FC(F)(F)c1ccc(-c2ccc3ncn(-c4ccc(Br)cc4)c3c2)cc1 [Compound 136]	> 10	> 50
FC(F)(F)c1c[nH]c(-c2ccc(Oc3ccccc3)cc2)n1 [Compound 218]	> 10	> 50
FC(F)(F)c1ccc(-c2nc(C(F)(F)F)cn2CC2CCNC2)cc1 (stereo not shown) [Compound 292]		> 50
N#Cc1ccc(-n2cc(C(F)(F)F)nc2-c2ccc(Br)cc2)c(F)c1 [Compound 291]		> 50
NC(=O)CN1c2ccccc2C2CCCC21 (stereo not shown) [Compound 320]		> 50
NCC(=O)NCCn1cc(C(F)(F)F)nc1-c1ccc(C(F)(F)F)cc1 [Compound 295]		> 50
O=[N+]([O-])c1ccc(-n2cc(C(F)(F)F)nc2-c2ccc(Cl)cc2)cc1 [Compound 29]		> 50
CC(C)(C)OC(=O)N1CCN(c2ccc(-n3nc(C(F)(F)F)cc3-c3ccc(Br)cc3)cc2)CC1 [Compound 41]		> 50
CC(C)c1cc(C(F)(F)F)nn1-c1ccc(Br)cc1 [Compound 277]		> 50
FC(F)(F)c1ccc(-c2cc(C(F)(F)F)nn2CCNC2CCN(Cc3ccccc3)C2)cc1 (stereo not shown) [Compound 294]		28.2
O=C(OCc1ccccc1)N1CCC(Nc2ccc(-n3nc(C(F)(F)F)cc3-c3ccc(-c4ccc(C(F)(F)F)cc4)cc3)cc2)C1 (stereo not shown) [Compound 6]		> 50

SMILES	IC50 [1] [µM]	CC50 (THP-1 macrophages) [µM]
CC(C)(C)OC(=O)N1CC(Nc2ccc(-n3nc(C(F)(F)F)cc3-c3ccc(-c4ccc(C(F)(F)F)cc4)cc3)cc2)C1 [Compound 56]		> 50
Cc1cc(C(F)(F)F)n(-c2ccc(NC3CCN(C(=O)OC(C)(C)C)C3)cc2)n1 (stereo not shown) [Compound 282]		> 50
FC(F)(F)c1ccc(-c2ccc(-c3cc(C(F)(F)F)nn3-c3ccc(N4CCC(NCc5ccccc5)C4)cc3)cc2)cc1 (stereo not shown) [Compound 16]		> 50
FC(F)(F)c1ccc(-c2ccc(-c3cc(C(F)(F)F)nn3-c3ccc(N4CCC(NCc5cccc(Cl)c5Cl)C4)cc3)cc2)cc1 (stereo not shown) [Compound 13]		> 50
OCCn1nc(C(F)(F)F)cc1-c1ccc(C(F)(F)F)cc1 [Compound 293]		> 50
Nc1ccc(-n2cc(C(F)(F)F)nc2-c2ccc(-c3ccccc3)cc2)cc1 [Compound 33]		1.5
Nc1ccc(-n2nc(C(F)(F)F)cc2C2CCCCC2)cc1 [Compound 338]		> 50
FC(F)(F)c1cc(-c2ccc(-c3ccc(S(F)(F)(F)(F)F)cc3)cc2)n(-c2ccc(N3CCNCC3)cc2)n1 [Compound 46]		10
CC(=O)NCCCOc1ccc(CN2CCC(Oc3ccc(-n4nc(C(F)(F)F)cc4C4CCCCC4)cc3)CC2)cc1 [Compound 430]		16.5
FC(F)(F)c1cc(C(F)(F)F)n(-c2ccc(Br)cc2)n1 [Compound 276]		32.2
O=[N+]([O-])c1ccc(-n2nc(-c3ccc(Br)cc3)cc2C(F)(F)F)cc1 [Compound 38]		> 50
NCC(=O)Nc1ccc(-n2cc(C(F)(F)F)nc2-c2ccccc2C(F)(F)F)cc1 [Compound 297]		> 50
O=C(c1ccc(F)cc1)N1CCC(Nc2ccc(-n3nc(C(F)(F)F)cc3-c3ccc(-c4ccc(C(F)(F)F)cc4)cc3)cc2)C1 (stereo not shown) [Compound 59]		> 50
CCCN(CCC)CCc1c[nH]c2ccccc12 [Compound 411]		> 50
N#Cc1ccc(COC2CCN(c3ccc(-n4nc(C(F)(F)F)cc4C4CCCCC4)cc3)C2)cc1 (stereo not shown) [Compound 413]		> 50
Nc1ccc(-n2cc(C(F)(F)F)nc2-c2ccc(-c3ccc(C(F)(F)F)cc3)cc2)cc1 [Compound 76]	> 10	
FC(F)c1cc(-c2ccc(-c3ccc(C(F)(F)F)cc3)cc2)n(-c2ccc(Br)cc2)n1 [Compound 279]		> 50
COc1ccc(CNC2CCN(c3ccc(-n4nc(C(F)(F)F)cc4-c4ccc(-c5ccc(C(F)(F)F)cc5)cc4)cc3)C2)cc1 (stereo not shown) [Compound 14]		50
